Measured values published in patent US12714728B2, “Methods for the production of cardiac fibroblasts” (FUJIFILM Cellular Dynamics, Inc., priority 2022, dated 2026).

How the values were obtained:
[1] = tested on: iPS cells (WT1+ epicardial cells); assay: Epicardial (WT1+) progenitor induction from iPS cells, CHIR dose titration / ABC; type: cell-based, human
Experimental: Cardiac mesoderm cells were then dissociated and contacted with a low concentration of Wnt inhibitor, XAV939, (Table 4) for two days to be specified into a WT1 epicardial lineage (FIG. 3A). The percentage of epicardial cells were measured in single CHIR, ABC, and double CHIR conditions. Epicardial induction with single CHIR or ABC step produced a mixed population of epicardial cells and cardiomyocytes. The percentage of WT1+ epicardial cells ranged from 30% WT1 to 90% WT1. These epicardial progenitors were used directly for cardiac fibroblast induction without additional passaging or purification of epicardial cells. A dose titration of CHIR was performed on iPS cells. […] A dose of 6 μM CHIR on Day 1 generated a population of 60% WT1 epicardial progenitor cells that have characteristic cobblestone morphology by Day 14 (FIG. 3C). […] When Activin and BMP were added with the single CHIR, the epicardial cells retained a flattened cobble stone morphology and dark, round nucleus. Cell-cell borders became less pronounced. There was no need to passage the epicardial cells. […] This was visible by increased cell numbers, decreased cell size, and more elongated morphology.

[2] = tested on: ROCK1/ROCK2; settings: competing with ATP; cited from earlier work
[3] = tested on: isogenic tri-culture cardiac microtissues (iPSC-derived cardiomyocytes, endothelial cells, cardiac fibroblasts); assay: Calcium transient / inotropic response of isogenic tri-culture cardiac microtissues; type: cell-based, human; settings: for calcium amplitude inotropic response with increased CF content: DIV 14, 10,000 total cells, 20% endothelial cells, varying cardiac fibroblast content
Excerpt: For the cardiac tri-culture microtissue assay, cryopreserved iPSC-derived cell types were combined in a specific ratio and formed into microtissues in microwell plates (FIG. 5A). Microtissues containing 65% iCell Cardiomyocytes, 20% iCell Endothelial cells, and 15% iPSC derived cardiac fibroblasts are shown in FIG. 5B. After 1-2 days, the microtissues were contracting.
Microtissues were fed a co-culture medium (Table 8) to support all three cell types. […] Microtissues were generated from three donor lines 11713, 01279, and 01434. Microtissues contained either iPSC-derived cardiomyocytes only or were tri-culture, containing isogenic iPSC-derived cardiomyocytes, iPSC-derived endothelial cells, and iPSC-derived cardiac fibroblasts. All microtissues were assayed for response to isoproterenol on Day 14 of culture. […] This response was in tri-culture microtissues from all three donor lines, in two independently produced lots of cardiac fibroblasts from donor 01434, and in microtissues containing cardiac fibroblasts from two independently derived clones from donor 11713 (11713.008 and 11713.847).
Response to dobutamine (DOB), digoxin (DIG), isoproterenol (ISO), and epinephrine (EPI) were assessed at DIV 14 on cardiac tri-culture microtissues comprised of 10,000 total cells and 20% iCell Endothelial Cells and iCell Cardiomyocytes and varying concentrations of iPSC derived cardiac fibroblasts (CF). […] (FIG. 6B).
(§1) Tri-culture microtissues were made from Normal Healthy Control (NHC) and isogenic LMNA-L35P iPSC-derived cell types. Fourteen days post microtissue formation, microtissues were challenged with isoproterenol.

[4] = tested on: isogenic LMNA-L35P iPSC-derived tri-culture microtissues; assay: Calcium transient response of LMNA-L35P disease model tri-culture microtissues; type: cell-based, human; settings: LMNA-L35P disease model microtissue; fourteen days post formation
Excerpt: as §1

[5] = tested on: iPSC derived cardiac fibroblasts; assay: Activation of iPSC-derived cardiac fibroblasts with TGFβ; type: cell-based, human
Experimental: The cardiac fibroblasts were thawed and plated on vitronectin-coated plates at 10 k/cm^2 and activated with TGFβ. TGFβ was added at 20 ng/mL or 40 ng/mL to activate cardiac fibroblasts on Day 2, with a media change on Day 4. On Day 5, media supernatants were collected and analyzed for fibronectin secretion by a Human FN ELISA Kit Cat #BMS2028. On Day 3 and Day 5, cardiac fibroblasts were harvested and counted by ViCell-XR. After 5 days cells were collected for flow cytometry.

[6] = tested on: epicardial progenitors from the ABC method; assay: Cardiac fibroblast differentiation in serum with varying basic FGF, CD29 positive cells; type: cell-based, human; settings: increasing concentrations of basic FGF, serum-containing medium
Experimental: Cardiac fibroblasts were induced in serum containing conditions on Day 25. The cells were fed DMEM-Low glucose, 10% FBS, Ascorbic Acid, and 200 ng/mL basic FGF and purified through successive passaging (Table 6). Cardiac fibroblasts were >85% positive for TE-7 and CD29 and quiescent (i.e., less than 5% αSMA) (FIG. 4A).

Compound: Cc1c[nH]c(-c2cnc(NCCNc3ccc(C#N)cn3)nc2-c2ccc(Cl)cc2Cl)n1 [CHIR, CHIR99021]
- WT1 epicardial progenitor cells ([1]; 6 μM CHIR on Day 1, single CHIR method): 60%
- effect of increasing dose on percentage of WT1+ epicardial cells ([1]; dose on Day 1, single CHIR method, read on Day 9): did not increase the percentage of WT1+ epicardial cells

Compound: C[C@@H](N)[C@H]1CC[C@H](C(=O)Nc2ccncc2)CC1 [Y-27632]
- IC50 [2]: 800 nM

Compound: C[C@H]1O[C@@H](O[C@H]2[C@@H](O)C[C@H](O[C@H]3[C@@H](O)C[C@H](O[C@H]4CC[C@@]5(C)[C@H](CC[C@@H]6[C@@H]5C[C@@H](O)[C@]5(C)[C@@H](C7=CC(=O)OC7)CC[C@]65O)C4)O[C@@H]3C)O[C@@H]2C)C[C@H](O)[C@@H]1O [digoxin]
- calcium amplitude inotropic response with increased CF content [3]: increased calcium amplitude inotropic response

Compound: CC(CCc1ccc(O)cc1)NCCc1ccc(O)c(O)c1 (centres unmarked) [dobutamine]
- calcium amplitude inotropic response with increased CF content [3]: increased calcium amplitude inotropic response

Compound: CNC[C@H](O)c1ccc(O)c(O)c1 [epinephrine]
- calcium amplitude inotropic response with increased CF content [3]: increased calcium amplitude inotropic response

Compound: CC(C)NCC(O)c1ccc(O)c(O)c1 (centres unmarked) [isoproterenol]
- response to isoproterenol (calcium transient amplitude) [4]: did not respond
- calcium transient amplitude ([3]; 100 nM isoproterenol, Normal Healthy Control microtissues, fourteen days post microtissue formation): increase in calcium transient amplitude
- calcium transient amplitude response to isoproterenol ([3]; Day 14 of culture, three donor lines): increase in calcium transient amplitude
- beat rate by calcium transient ([3]; in the presence of isoproterenol): increase in beat rate

Compound: TGFβ
- gene expression by quantitative real-time PCR ([5]; 20 ng/mL TGFβ for 4 days, single CHIR and double CHIR cardiac fibroblasts): increased POSTN, DDR2, COL1A1, COL1A2, GJA1, and ACTA2 expression
- alpha smooth muscle actin expressing population (flow cytometry) ([5]; TGFβ 20 ng/mL or 40 ng/mL added Day 2, cells collected after 5 days): alpha smooth muscle actin expressing population was seen to emerge
- fibronectin secretion ([5]; cardiac fibroblasts from serum-containing and serum-free induction): increased fibronectin secretion

Compound: basic FGF: basic fibroblast growth factor used for cardiac fibroblast induction
- percentage of CD29 positive cells [6]: increase the percentage of CD29 positive cells
